For 21 molecules, IC50 and EC50 results are on record in patent US11198699B2 (ALIGOS THERAPEUTICS, INC., priority 2019, dated 2021).

Molecules are shown by their SMILES. Where only a bound is given, the exact number is not on record here.

One assay addresses PRMT5/MEP50 (Homo sapiens (Human), UniProt O14744). The assay is described as follows: PRMT5/MEP50 enzyme inhibition assay, Assay 2 (384-well, MALDI mass spectrometry, histone H4 1-21 peptide). The assay is classed as biochemical. The settings on record: 1 μM SAM, 0.1 μM histone H4 1-21 peptide, 18-hour incubation at rt. As to the method: Compounds were tested for inhibition of methyltransferase activity in 384-well plate assay format using mass spectrometry technology. In this enzyme inhibition assay, compounds were tested in a 11-dose IC50 mode with 3-serial dilution, in duplicate, starting at 1, 10, or 100 μM. Reactions were carried out at 1 μM SAM and 0.1 μM histone H4 1-21 peptide as substrates for methyl transfer. Following an 18-hour incubation at rt, the reaction was stopped with 0.5% formic acid. Products of the reaction were captured while unreacted substrates were washed away, prior to MALDI mass spectrometry detection and analysis. Percent enzyme activity was calculated based on no inhibitor DMSO control as 100% activity. EC50 values were determined in GraphPad Prism 8 using the [inhibitor] vs. response—Variable slope (four parameters) function.
Compounds of Formula (I) show activity in this assay. A value of ‘A’ in the table below indicates an IC50 of <1 nM, a value of ‘B’ indicates an IC50≥1 nM to ≤100 nM, and a value of ‘C’ indicates an IC50 value of >100 nM.

For assay [1], the system named is A549 lung carcinoma cells. The experiment in a line: Cell proliferation assay, A549 (CellTiter-Glo, 7 days). The settings on record: A549, 7 days, CellTiter-Glo 2.0. The assay is classed as cell-based. As to the method: (§1) HepG2 hepatoma cells (ATCC, HB-8065) were maintained in DMEM with high glucose (Lonza, 12-914F) supplemented with 10% fetal bovine serum (FBS; Biowest, S181B-500) and 2 mM L-glutamine (Biowest, X0551-100) at 37° C. and 5% CO2. A549 lung carcinoma cells (ATCC, CCL-185) were maintained in F-12K medium (ThermoFisher 21127030) supplemented with 10% FBS at 37° C. and 5% CO2. Exponentially growing HepG2 or A549 were plated in white, clear-bottom 96-well plates (Corning, 3903) at a cell density of 2000 (HepG2) or 350 (A549) cells per well in 199 μL of HepG2 medium. Next, 1 μL of a 5-fold 9-point dilution series of test compound in DMSO was added to the different wells. Cells were incubated at 37° C. 5% CO2 for 7 days. Cell viability was assessed on day 7 with the CellTiter-Glo 2.0 Cell Viability assay kit (Promega, G9243) to quantify the intracellular amounts of ATP: first, 100 μL of cell culture medium was removed from each well, next 100 μL of CellTiter-Glo® 2.0 Reagent was added and plates were shaken for 2 minutes on an orbital shaker. After 10 minutes stabilization at room temperature, read-out was performed on a ThermoFisher VarioSkan Lux plate reader. Counts were normalized to DMSO control (0% inhibition) and the cytotoxic control (100% inhibition) and EC50 values were determined in GraphPad Prism 8 using the [Agonist] vs. response—Variable slope (four parameters) function.
(§2) As shown by the data of Table 2, compounds of Formula (I) have activity in this assay. A value of ‘A’ in the table below indicates an EC50 of <20 nM, a value of ‘B’ indicates an EC50≥20 nM to <100 nM, a value of ‘C’ indicates an EC50 value of EC50≥100 nM to <1000 nM and a value of ‘D’ indicates an EC50≥1000 nM

The next assay concerns HepG2 hepatoma cells. The experiment in a line: Cell proliferation assay, HepG2 (CellTiter-Glo, 7 days). The following applies: HepG2, 7 days, CellTiter-Glo 2.0. The assay is classed as cell-based. How it is done:
as §1, §2

Chain of PRMT5/MEP50 (O14744 whole entry): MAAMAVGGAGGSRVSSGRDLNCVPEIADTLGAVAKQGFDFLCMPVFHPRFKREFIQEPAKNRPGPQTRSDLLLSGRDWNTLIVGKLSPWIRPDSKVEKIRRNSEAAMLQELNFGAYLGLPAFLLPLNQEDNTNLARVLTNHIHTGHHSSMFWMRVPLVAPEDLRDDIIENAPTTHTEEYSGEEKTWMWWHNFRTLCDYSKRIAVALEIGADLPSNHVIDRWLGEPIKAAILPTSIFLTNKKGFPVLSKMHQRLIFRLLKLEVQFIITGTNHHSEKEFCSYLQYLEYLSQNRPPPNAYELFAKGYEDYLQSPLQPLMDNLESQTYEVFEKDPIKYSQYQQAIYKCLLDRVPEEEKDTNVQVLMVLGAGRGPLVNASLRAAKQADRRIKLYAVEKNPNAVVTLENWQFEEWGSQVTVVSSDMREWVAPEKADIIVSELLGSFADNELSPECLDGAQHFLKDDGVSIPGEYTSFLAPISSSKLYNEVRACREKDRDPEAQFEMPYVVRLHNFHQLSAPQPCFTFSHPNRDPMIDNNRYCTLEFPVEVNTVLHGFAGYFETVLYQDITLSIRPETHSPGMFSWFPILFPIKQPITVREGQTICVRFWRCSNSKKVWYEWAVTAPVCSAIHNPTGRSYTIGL
Chain of PRMT5/MEP50 (Q9BQA1 whole entry partner): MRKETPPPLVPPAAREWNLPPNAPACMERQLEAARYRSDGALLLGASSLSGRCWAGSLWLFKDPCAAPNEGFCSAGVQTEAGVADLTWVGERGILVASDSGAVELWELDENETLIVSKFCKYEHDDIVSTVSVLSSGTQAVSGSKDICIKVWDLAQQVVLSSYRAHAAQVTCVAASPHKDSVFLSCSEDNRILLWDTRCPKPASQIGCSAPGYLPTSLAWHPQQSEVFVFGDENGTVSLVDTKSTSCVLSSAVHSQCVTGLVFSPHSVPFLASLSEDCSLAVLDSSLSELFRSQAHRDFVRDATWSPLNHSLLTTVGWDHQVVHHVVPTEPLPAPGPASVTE

On to `Nc1nc2cc(OC[C@@H]3[C@@H](O)[C@@H](O)C4(n5ccc6c(N)ncnc65)C[C@@H]34)ccc2cc1Br` (mixture of isomers) [Compound 17, rac-(2S,3R,4R,5S)-4-[(2-amino-3-bromo-7-quinolyl)oxymethyl]-1-(4-aminopyrrolo[2,3-d]pyrimidin-7-yl)bicyclo[3.1.0]hexane-2,3-diol], for which, on PRMT5/MEP50, the IC50 was more than 100 nM. The EC50 was not below 1000 nM in assay [1] (Homo sapiens, A549, 168 h) and not below 1000 nM with HepG2 hepatoma cells (Homo sapiens, 168 h).
In the case of `C[C@]1(CCc2ccc3cc(Br)c(N)nc3c2)C[C@@H](n2ccc3c(N)ncnc32)[C@H](O)[C@@H]1O` [Compound 1], the EC50 is less than 20 nM in assay [1] (Homo sapiens, A549, 168 h) and less than 20 nM in the assay with HepG2 hepatoma cells (Homo sapiens, 168 h).
On to `Nc1nc2cc(OC[C@@]34C[C@@H]3[C@@H](n3ccc5c(N)ncnc53)[C@H](O)[C@@H]4O)ccc2cc1Br` [Compound 15, (1R,2R,3S,4R,5S)-1-[(2-amino-3-bromo-7-quinolyl)oxymethyl]-4-(4-aminopyrrolo[2,3-d]pyrimidin-7-yl)bicyclo[3.1.0]hexane-2,3-diol], for which the IC50 on PRMT5/MEP50 is less than 1 nM. The EC50 in assay [1] (Homo sapiens, A549, 168 h) is 100 to 1000 nM; with HepG2 hepatoma cells (Homo sapiens, 168 h) it was 100 to 1000 nM.
At PRMT5/MEP50, `Cc1cnc2cc(OC[C@@]34C[C@@H]3[C@@H](n3ccc5c(N)ncnc53)[C@H](O)[C@@H]4O)ccn12` [Compound 16] came in with an IC50 of less than 1 nM. Also, the EC50 (in assay [1]; in the assay with HepG2 hepatoma cells) was not below 1000 nM throughout.
Take `C[C@]1(CCc2ccc3cc(Cl)c(N)nc3c2)C[C@@H](n2ccc3c(N)ncnc32)[C@H](O)[C@@H]1O` [Compound 18]: the IC50 at PRMT5/MEP50 was less than 1 nM. The EC50 (in assay [1]; in the assay on HepG2 hepatoma cells) was less than 20 nM throughout.
Consider `Nc1nc2cc(CC[C@@]34C[C@@H]3[C@@H](n3ccc5c(N)ncnc53)[C@H](O)[C@@H]4O)ccc2cc1Cl` [Compound 19, (1R,2R,3S,4R,5S)-1-[2-(2-amino-3-chloro-7-quinolyl)ethyl]-4-(4-aminopyrrolo[2,3-d]pyrimidin-7-yl)bicyclo[3.1.0]hexane-2,3-diol], for which the IC50 on PRMT5/MEP50 is less than 1 nM. Further, the EC50 in assay [1] (Homo sapiens, A549, 168 h) is less than 20 nM; with HepG2 hepatoma cells (Homo sapiens, 168 h) it was less than 20 nM.
`CCCCCOC(=O)Nc1ccc2ccc(CC[C@@]3(C)C[C@@H](n4ccc5c(N)ncnc54)[C@H](O)[C@@H]3O)cc2n1` [Compound 20, pentyl N-[7-[2-[(1S,2R,3S,4R)-4-(4-aminopyrrolo[2,3-d]pyrimidin-7-yl)-2,3-dihydroxy-1-methyl-cyclopentyl]ethyl]-2-quinolyl]carbamate] yielded an IC50 against PRMT5/MEP50 of 1 to 100 nM. Further, the EC50 in assay [1] (Homo sapiens, A549, 168 h) is 20 to 100 nM; in the assay with HepG2 hepatoma cells (Homo sapiens, 168 h) it was less than 20 nM.
Take `CCCCCOC(=O)Nc1ccc2cc(CC[C@@]3(C)C[C@@H](n4ccc5c(N)ncnc54)[C@H](O)[C@@H]3O)ccc2n1` [Compound 20-A]: on PRMT5/MEP50, the IC50 is more than 100 nM. Further, the EC50 in assay [1] (Homo sapiens, A549, 168 h) is 100 to 1000 nM; with HepG2 hepatoma cells (Homo sapiens, 168 h), 100 to 1000 nM.
Molecule `C[C@]1(CCc2ccc3ccc(N)nc3c2)C[C@@H](n2ccc3c(N)ncc(F)c32)[C@H](O)[C@@H]1O` [Compound 21, (1S,2R,3S,5R)-5-(4-amino-7-fluoro-pyrrolo[3,2-c]pyridin-1-yl)-3-[2-(2-amino-7-quinolyl)ethyl]-3-methyl-cyclopentane-1,2-diol] registered an IC50 on PRMT5/MEP50 of less than 1 nM. The EC50 in assay [1] (Homo sapiens, A549, 168 h) was less than 20 nM; in the assay with HepG2 hepatoma cells (Homo sapiens, 168 h) it was less than 20 nM.
`C[C@]1(CCc2ccc3nc(N)ccc3c2)C[C@@H](n2ccc3c(N)ncc(F)c32)[C@H](O)[C@@H]1O` [Compound 21-A]: on PRMT5/MEP50, the IC50 was in the range of 1 to 100 nM. The half-maximal effective concentration (EC50) in assay [1] (Homo sapiens, A549, 168 h) was not below 1000 nM; in the assay with HepG2 hepatoma cells (Homo sapiens, 168 h), not below 1000 nM.
Take `Nc1ccc2ccc(CC[C@@]34CC3[C@@H](n3ccc5c(N)ncnc53)[C@H](O)[C@@H]4O)nc2n1` (stereo partly drawn) [Compound 22, (1R,2R,3S,4R)-1-[2-(7-amino-1,8-naphthyridin-2-yl)ethyl]-4-(4-aminopyrrolo[2,3-d]pyrimidin-7-yl)bicyclo[3.1.0]hexane-2,3-diol]: the IC50 on PRMT5/MEP50 was less than 1 nM. The EC50 in assay [1] (Homo sapiens, A549, 168 h) was in the range of 100 to 1000 nM; in the assay with HepG2 hepatoma cells (Homo sapiens, 168 h), 100 to 1000 nM.
On to `C[C@]1(CCc2ccc3cc(C(F)F)c(N)nc3c2)C[C@@H](n2ccc3c(N)ncnc32)[C@H](O)[C@@H]1O` [Compound 23], for which, at PRMT5/MEP50, the 50% inhibitory concentration (IC50) was less than 1 nM. In addition, the EC50 (in assay [1]; in the assay on HepG2 hepatoma cells) was less than 20 nM in each case.
Consider `C[C@]1(CCc2ccc3ccc(N)nc3n2)C[C@@H](n2ccc3c(N)ncnc32)[C@H](O)[C@@H]1O` [Compound 24], for which the IC50 at PRMT5/MEP50 was less than 1 nM. Further, the EC50 (in assay [1]; with HepG2 hepatoma cells) was 20 to 100 nM in each case.
Consider `CC(C)C(=O)O[C@H]1[C@H](n2ccc3c(N)ncnc32)[C@H]2C[C@@]2(CCc2ccc3nc(N)ccc3c2)[C@H]1OC(=O)C(C)C` [Compound 25-A, (1R,2R,3S,4R,5S)-4-(4-amino-7H-pyrrolo[2,3-d]pyrimidin-7-yl)-1-(2-(2-aminoquinolin-6-yl)ethyl)bicyclo[3.1.0]hexane-2,3-diyl bis(2-methylpropanoate)], for which the IC50 against PRMT5/MEP50 was more than 100 nM. For the same molecule, the EC50 was not below 1000 nM in assay [1] (Homo sapiens, A549, 168 h) and not below 1000 nM in the assay with HepG2 hepatoma cells (Homo sapiens, 168 h).
At PRMT5/MEP50, `CC(C)C(=O)O[C@H]1[C@H](n2ccc3c(N)ncnc32)C[C@](C)(CCc2ccc3ccc(N)nc3c2)[C@H]1OC(=O)C(C)C` [Compound 26, (1S,2R,3S,5R)-5-(4-amino-7H-pyrrolo[2,3-d]pyrimidin-7-yl)-3-(2-(2-aminoquinolin-7-yl)ethyl)-3-methylcyclopentane-1,2-diyl bis(2-methylpropanoate)] returned an IC50 of more than 100 nM. For the same molecule, the concentration for a half-maximal effect (EC50) in assay [1] (Homo sapiens, A549, 168 h) lay within 100 to 1000 nM; in the assay with HepG2 hepatoma cells (Homo sapiens, 168 h), 20 to 100 nM.
Turning to `Cc1ncnc2c1ccn2[C@@H]1C[C@](C)(CCc2cc(F)c3cc(Cl)c(N)nc3c2)[C@@H](O)[C@H]1O` [Compound 32, (1S,2R,3S,5R)-3-(2-(2-amino-3-chloro-5-fluoroquinolin-7-yl)ethyl)-3-methyl-5-(4-methyl-7H-pyrrolo[2,3-d]pyrimidin-7-yl)cyclopentane-1,2-diol], the EC50 in assay [1] (Homo sapiens, A549, 168 h) is less than 20 nM; with HepG2 hepatoma cells (Homo sapiens, 168 h), less than 20 nM.
Turning to `CCCCCOC(=O)Nc1nc2cc(CC[C@@]3(C)C[C@@H](n4ccc5c(N)ncnc54)[C@H](O)[C@@H]3O)ccc2cc1Cl` [Compound 33, pentyl (7-(2-((1S,2R,3S,4R)-4-(4-amino-7H-pyrrolo[2,3-d]pyrimidin-7-yl)-2,3-dihydroxy-1-methylcyclopentyl)ethyl)-3-chloroquinolin-2-yl)carbamate], the EC50 in assay [1] (Homo sapiens, A549, 168 h) is less than 20 nM; with HepG2 hepatoma cells (Homo sapiens, 168 h), less than 20 nM.
Turning to `C[C@]1(CCc2cc(F)c3cc(Cl)c(N)nc3c2)C[C@@H](n2ccc3c(N)ncc(F)c32)[C@H](O)[C@@H]1O` [Compound 34, (1S,2R,3S,5R)-3-[2-(2-amino-3-chloro-5-fluoro-7-quinolyl)ethyl]-5-(4-amino-7-fluoro-pyrrolo[3,2-c]pyridin-1-yl)-3-methyl-cyclopentane-1,2-diol], the EC50 in assay [1] (Homo sapiens, A549, 168 h) is less than 20 nM; in the assay with HepG2 hepatoma cells (Homo sapiens, 168 h), less than 20 nM.
On to `Nc1ccc2ccc(CC[C@@]3(F)C[C@@H](n4ccc5c(N)ncnc54)[C@H](O)[C@@H]3O)cc2n1` [Compound 35, (1S,2S,3R,5R)-5-(4-amino-7H-pyrrolo[2,3-d]pyrimidin-7-yl)-3-(2-(2-aminoquinolin-7-yl)ethyl)-3-fluorocyclopentane-1,2-diol], for which the EC50 in assay [1] (Homo sapiens, A549, 168 h) is less than 20 nM; in the assay on HepG2 hepatoma cells (Homo sapiens, 168 h) it was less than 20 nM.
At PRMT5/MEP50, `C[C@]1(CCc2cc(F)c3cc(Cl)c(N)nc3c2)C[C@@H](c2ccc3c(N)ncnn23)[C@H](O)[C@@H]1O` [Compound 57] displayed an IC50 of less than 1 nM.
On the same count and under the same terms, the same measure for `COC[C@]1(CCc2ccc3cc(Br)c(N)nc3c2)C[C@@H](n2ccc3c(N)ncnc32)[C@H](O)[C@@H]1O` [Compound 58]: less than 1 nM.

What is called IC50 is the point on the concentration scale where inhibition reaches its midpoint. Higher therefore signals lower potency. One may read the EC50 as the concentration that produces a half-maximal response. Low readings indicate a more potent agent, high ones a less potent agent.
